Assay results as given in patent publication US20100152531A1, “IMPLANTABLE MEDICAL DEVICE FOR DRUG DELIVERY AND METHOD OF USE” (Paracor Medical, Inc., priority 2008, published 2010).
Values joined by “and” are separate entries in the source; they are usually repeats but may differ in a detail not shown here. Equal entries are not always repeated. Where two headings read alike, the source gives them in different places.

Legend:
[1] = Half life of NONOates (diazeniumdiolates) at 37° C., pH 7.4; format: physicochemical
Source text: Diazeniumdiolates, more commonly referred to as NONOates, have been extremely useful in the investigation of the biological effects of nitric oxide (NO) and related nitrogen oxides. […] FIG. 55 illustrates an exemplary chemical reaction.

coronaries of pigs = conditions: delivered intrapericardially; cited from earlier work
rats with MI = conditions: cited from earlier work
[2] = oral, cited from earlier work
mice with aortic banding = conditions: mouse, in vivo; cited from earlier work
aldosterone receptors = biological target: T1, aldosterone receptors (Homo sapiens, UniProt P08235); conditions: cited from earlier work
T1 construct: host or cells: heart failure patients (in vivo)
T1 sequence (P08235 1-984): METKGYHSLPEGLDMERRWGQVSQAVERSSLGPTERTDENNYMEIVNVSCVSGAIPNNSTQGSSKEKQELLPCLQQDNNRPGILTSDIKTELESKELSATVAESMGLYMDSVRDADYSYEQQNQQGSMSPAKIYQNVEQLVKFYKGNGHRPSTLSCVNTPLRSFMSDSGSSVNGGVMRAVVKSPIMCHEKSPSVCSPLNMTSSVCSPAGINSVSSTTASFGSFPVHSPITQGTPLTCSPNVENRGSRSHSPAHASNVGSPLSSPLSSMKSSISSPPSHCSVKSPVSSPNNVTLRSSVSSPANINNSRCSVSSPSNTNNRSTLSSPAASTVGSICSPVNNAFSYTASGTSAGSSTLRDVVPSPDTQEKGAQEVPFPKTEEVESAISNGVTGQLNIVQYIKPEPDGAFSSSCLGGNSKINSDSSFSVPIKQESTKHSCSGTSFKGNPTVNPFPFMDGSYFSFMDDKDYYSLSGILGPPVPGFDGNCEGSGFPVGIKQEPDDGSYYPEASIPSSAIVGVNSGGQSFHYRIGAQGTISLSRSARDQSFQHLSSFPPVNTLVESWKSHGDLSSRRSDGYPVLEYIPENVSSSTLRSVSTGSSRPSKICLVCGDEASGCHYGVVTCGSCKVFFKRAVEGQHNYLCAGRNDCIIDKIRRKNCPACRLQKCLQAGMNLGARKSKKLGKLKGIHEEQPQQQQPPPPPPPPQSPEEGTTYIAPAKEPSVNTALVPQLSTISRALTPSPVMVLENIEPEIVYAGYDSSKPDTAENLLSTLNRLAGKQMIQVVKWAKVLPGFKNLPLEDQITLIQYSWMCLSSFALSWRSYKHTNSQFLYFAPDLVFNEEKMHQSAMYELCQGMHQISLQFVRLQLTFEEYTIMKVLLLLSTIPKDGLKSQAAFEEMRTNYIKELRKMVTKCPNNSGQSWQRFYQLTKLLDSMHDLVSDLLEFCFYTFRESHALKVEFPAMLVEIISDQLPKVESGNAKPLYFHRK

[3] = cited from earlier work

CN(C)[N+]([O-])=N[O-].[Na+] [Compound 1, Sodium 1-(N,N-Dimthylanimo)diazen-1-ium-1,2-dilate]
Half Life 37° C., pH 7.4 [1]: 0.2 min

CN(C)/[N+]([O-])=N/[O-].[Na+] [Compound 2, Sodium (Z)-1-(N,N-Dimthylanimo)diazen-1-ium-1,2-dilate]
Half Life 37° C., pH 7.4 [1]: 2 min

NCCCN(CCCN)/[N+]([O-])=N/O [Compound 4]
Half Life 37° C., pH 7.4 [1]: 3 hrs

NCCN(CCN)[N+]([O-])=NO [Compound 5, 1-[N-(2-Aminoethyl)-N-(2-ammonioethyl)amino]diazen-1-ium-1,2-diolate]
half-life ([1]; buffer): 20 h

COCON=[N+]([O-])N1CCNCC1 [Compound 7, O^2-Methozymethyl 1-(Piperazin-1-yl)diazen-1-ium-1,2-diolate]
Half Life 37° C., pH 7.4 [1]: 17 days

CC(=O)O[C@H]1C(=O)[C@@]2(C)[C@H]([C@H](OC(=O)c3ccccc3)[C@]3(O)C[C@H](OC(=O)[C@H](O)[C@@H](NC(=O)c4ccccc4)c4ccccc4)C(C)=C1C3(C)C)[C@]1(OC(C)=O)CO[C@@H]1C[C@@H]2O [Paclitaxel]
neointimal proliferation in the coronaries in response to balloon injury (coronaries of pigs): inhibit neointimal proliferation

CO[C@H]1C[C@@H]2CC[C@@H](C)[C@@](O)(O2)C(=O)C(=O)N2CCCC[C@H]2C(=O)O[C@H]([C@H](C)C[C@@H]2CC[C@@H](OCCO)[C@H](OC)C2)CC(=O)[C@H](C)/C=C(\C)[C@@H](O)[C@@H](OC)C(=O)[C@H](C)C[C@H](C)/C=C/C=C/C=C/1C [everolimus]
EF (rats with MI; compared to untreated MI rats): significant increase | LV end-diastolic diameter (rats with MI; compared to untreated MI rats): significant reduction | reduction of myocyte size (rats with MI; rat, in vivo): 33%

CO[C@H]1C[C@@H]2CC[C@@H](C)[C@@](O)(O2)C(=O)C(=O)N2CCCC[C@H]2C(=O)O[C@H]([C@H](C)C[C@@H]2CC[C@@H](O)[C@H](OC)C2)CC(=O)[C@H](C)/C=C(\C)[C@@H](O)[C@@H](OC)C(=O)[C@H](C)C[C@H](C)/C=C/C=C/C=C/1C [sirolimus]
patients who experienced side effects (mild to severe) ([2]; 2 mg daily): 43% | patients who experienced side effects (mild to severe) ([2]; 5 mg daily): 66% | body weight, lung weight, or liver weight (mice with aortic banding): without affecting

CC(=O)S[C@@H]1CC2=CC(=O)CC[C@]2(C)[C@H]2CC[C@@]3(C)[C@@H](CC[C@@]34CCC(=O)O4)[C@H]12 [spironolactone]
blocking the aldosterone receptors and decreasing atrial natriuretic peptide concentrations (aldosterone receptors; dose of 12.5 to 25 mg daily): effective | incidence of serious hyperkalemia (aldosterone receptors; high-risk heart failure patients, with ACE inhibitor): low incidence | risk of both morbidity and death (aldosterone receptors; high-risk heart failure patients): significantly reduced | daily dose at which serious hyperkalemia occurs most frequently (aldosterone receptors; in vivo): ≥ 50 mg | blood pressure decrease ([3]; doses above 150 mg): no additional decrease | incidence of gynecomastia ([3]; doses of 50 mg or less): 8.9% | incidence of gynecomastia ([3]; doses of 150 mg or higher): 52.2% | blood pressure decrease ([3]; doses of 25 to 50 mg): 5.3% and 8.5% | blood pressure decrease ([3]; doses of 75 to 100 mg): 12.4% and 12.2%
